Measured values: article PMC3375898 (Natural Product Communications, 2011)
Like-named read-outs stand apart in the source and are kept apart here.

How the values were obtained:
Format in all cases: cell-based
[1] = tested on: MCF-7 human breast cancer cells; assay: Cancer bioassay, cytotoxicity by NCI protocol
[2] = tested on: chloroquine-resistant strain (Indochina W2) of P. falciparum; assay: Malaria bioassay, PicoGreen fluorometric antiplasmodial assay; settings: Plasmodium falciparum
[3] = tested on: recombinant Tulahuen clone C4 of T. cruzi, intracellular amastigotes in Vero cells; assay: Chagas' disease bioassay, beta-galactosidase colorimetric assay; settings: Trypanosoma cruzi, 120 h, read-out: IC50 T. cruzi
[4] = Mammalian cell cytotoxicity bioassay; settings: African green monkey, Vero cells (kidney)

Structure (SMILES): COc1cccc2c1C(=O)c1c(O)c3c(c(O)c1C2=O)C[C@@](O)(C(=O)CO)C[C@@H]3O[C@H]1C[C@H](N)[C@H](O)[C@H](C)O1 [Adriamycin, reference compound]
- IC50 ([1]; MCF7, read-out: IC50 MCF-7, positive control): 0.02 to 0.3 nM

Structure (SMILES): CCN(CC)CCCC(C)Nc1ccnc2cc(Cl)ccc12 (stereo not shown) [Chloroquine, reference compound]
- IC50 ([2]; W2, read-out: IC50 P. falciparum, positive control): 80 to 100 nM

Structure (SMILES): COc1c(CC(C)O)c2c3c(CC(C)O)c(OC)c(=O)c4c(O)cc5c(c6c(cc(O)c(c1=O)c62)OCO5)c43 (stereo not shown) [Compound 1, cercosporin]
- IC50 [3]: 1080 ± 30 nM
- IC50 at 4 h [4]: 1540 ± 100 nM
- IC50 ([1]; MCF7, read-out: IC50 MCF-7): 4680 ± 200 nM
- IC50 ([2]; W2, read-out: IC50 P. falciparum): 1030 ± 30 nM

Structure (SMILES): CC1CS(=O)(=O)CCN1/N=C/c1ccc([N+](=O)[O-])o1 (stereo not shown) [Nifurtimox, reference compound]
- IC50 [3]: 10000 to 16000 nM
